Reference: publication PMC5444469, “Involvement of three putative glucosyltransferases from the UGT72 family in flavonol glucoside/rhamnoside biosynthesis in Lotus japonicus seeds” (Journal of Experimental Botany, 2016)

B1: UGT72Z2 (Lotus japonicus) (protein)
chain: MAKTIHIAAVSIPAFSHQASIIEFCKKLLHLHHHYHVTCIFPTIDAPVAATLKLLQSLPSTIDFKFLPPVNKQDLPQDVSPAVQIQLAVSQSMPSFRDTMRSLHSTTPHLTALIADPFANEALEIGKEFNLLSYIYFPPSAMTLSLFLHLPKLHEEVSCEYRDLTEPIQIPGCIPIQGQDLPEHFQDRSSLAYDLILKRCKRFSLADGFLVNSFLELEEGTVKALQEQNRGNRGENRGNRGKNRGNRDSPVFLVGPVIQTGPSSEPKGSESEYCVRWLENQIPKSVLYVSFGSGGTLSQEQMNELAFGLELSGQKFLWVVRAPSDSANAAYLGVGNEDPLKFLPSGFIERTKGQGLVIPSWAPQTQILSHSSIGGFLTHCGWNSVLESIVLGVPMITWPLFAEQRMNAVLLTDGVKVALRPKFDENGIVKREEIAVVVKGLMQGEEGNGIHHRIEVLKEAAADALKEDGSSTRALSQFGNQIENFLALK
notes: full-length ORF cloned from leaf cDNA; MBP fusion (pMAL-c2x), E. coli Novablue, maltose-resin purified

Legend:
Conditions in all cases: 4 mM UDP-glucose, pH 7.5, 30 °C, 10 mM DTT
[1] = test system: T1, UGT72AD1; experiment: HPLC glucosylation assay; assay type: biochemical, Lotus japonicus
T1 construct: full-length ORF cloned from leaf cDNA; MBP fusion (pMAL-c2x), E. coli Novablue, maltose-resin purified

[2] = substrate: O=c1c(O)c(-c2cc(O)c(O)c(O)c2)oc2cc(O)cc(O)c12; experiment: purified protein
[3] = substrate: O=c1c(O)c(-c2ccc(O)c(O)c2)oc2cc(O)cc(O)c12; experiment: HPLC glucosylation assay; assay type: biochemical, Lotus japonicus
Excerpt: (§1) HPLC glucosylation assay on UGT72Z2 | UGT72Z2 ...

[4] = substrate: O=c1c(O)c(-c2ccc(O)cc2)oc2cc(O)cc(O)c12; experiment: HPLC glucosylation assay; assay type: biochemical, Lotus japonicus
Excerpt: as §1

Molecule | Km [1] | Km [2] | Km [3] | Km [4]
O=c1c(O)c(-c2cc(O)c(O)c(O)c2)oc2cc(O)cc(O)c12 [myricetin] | 390 µM |  |  | 
O=c1c(O)c(-c2ccc(O)c(O)c2)oc2cc(O)cc(O)c12 [quercetin] | 310 µM |  |  | 
O=c1c(O)c(-c2ccc(O)cc2)oc2cc(O)cc(O)c12 [kaempferol] | 330 µM |  |  | 
B1 |  | 46 µM | 68 µM | 40 µM
